Where two headings read alike, the source gives them in different places. Marks after values point to notes of the source that are not given here.
Biological target: T1, F508delCFTR (Homo sapiens, UniProt P13569, DEL508-508)
T1 construct: expressed in transfected cells; host or cells: CFBE41o- human lung derived epithelial cells (CFBE41o-F508delCFTR-HRP), doxycycline-inducible
Assay: Cell Surface Expression-Horse Radish Peroxidase (CSE-HRP) Assay;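 as to EC50 (with co-corrector): co-corrector chromenyl benzoic acid corrector at 2 or 3 µM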;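 as to Maximum % activity (without co-corrector): % of on-plate positive control chromenyl benzoic acid corrector at 2 or 3 µM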
Type: cell-based
Conditions: for Emax: read-out: Maximum % activity (without co-corrector)
Procedure, shortened: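 Corrector compounds were given as 8-point 3-fold series from 20 or 30 μM, with or without a 2 μM co-corrector, for 18-24 h at 33 °C. Surface HRP was read by luminol luminescence as % of positive control; variable-Hill-slope sigmoidal fitting gave EC50 from triplicate plates.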

[1] = test compound alone, without co-corrector, read-out: EC50 (without co-corrector)
[2] = with co-corrector, maximum at any tested concentration
[3] = with co-corrector, read-out: EC50 (with co-corrector)
[4] = without co-corrector, maximum at any tested concentration
[5] = test compound with co-corrector, maximum at any tested concentration
[6] = test compound with co-corrector, read-out: EC50 (with co-corrector)
[7] = test compound without co-corrector, maximum at any tested concentration
[8] = test compound without co-corrector, read-out: EC50 (without co-corrector)

T1 sequence (P13569 with tags, fused parts or gaps DEL508-508): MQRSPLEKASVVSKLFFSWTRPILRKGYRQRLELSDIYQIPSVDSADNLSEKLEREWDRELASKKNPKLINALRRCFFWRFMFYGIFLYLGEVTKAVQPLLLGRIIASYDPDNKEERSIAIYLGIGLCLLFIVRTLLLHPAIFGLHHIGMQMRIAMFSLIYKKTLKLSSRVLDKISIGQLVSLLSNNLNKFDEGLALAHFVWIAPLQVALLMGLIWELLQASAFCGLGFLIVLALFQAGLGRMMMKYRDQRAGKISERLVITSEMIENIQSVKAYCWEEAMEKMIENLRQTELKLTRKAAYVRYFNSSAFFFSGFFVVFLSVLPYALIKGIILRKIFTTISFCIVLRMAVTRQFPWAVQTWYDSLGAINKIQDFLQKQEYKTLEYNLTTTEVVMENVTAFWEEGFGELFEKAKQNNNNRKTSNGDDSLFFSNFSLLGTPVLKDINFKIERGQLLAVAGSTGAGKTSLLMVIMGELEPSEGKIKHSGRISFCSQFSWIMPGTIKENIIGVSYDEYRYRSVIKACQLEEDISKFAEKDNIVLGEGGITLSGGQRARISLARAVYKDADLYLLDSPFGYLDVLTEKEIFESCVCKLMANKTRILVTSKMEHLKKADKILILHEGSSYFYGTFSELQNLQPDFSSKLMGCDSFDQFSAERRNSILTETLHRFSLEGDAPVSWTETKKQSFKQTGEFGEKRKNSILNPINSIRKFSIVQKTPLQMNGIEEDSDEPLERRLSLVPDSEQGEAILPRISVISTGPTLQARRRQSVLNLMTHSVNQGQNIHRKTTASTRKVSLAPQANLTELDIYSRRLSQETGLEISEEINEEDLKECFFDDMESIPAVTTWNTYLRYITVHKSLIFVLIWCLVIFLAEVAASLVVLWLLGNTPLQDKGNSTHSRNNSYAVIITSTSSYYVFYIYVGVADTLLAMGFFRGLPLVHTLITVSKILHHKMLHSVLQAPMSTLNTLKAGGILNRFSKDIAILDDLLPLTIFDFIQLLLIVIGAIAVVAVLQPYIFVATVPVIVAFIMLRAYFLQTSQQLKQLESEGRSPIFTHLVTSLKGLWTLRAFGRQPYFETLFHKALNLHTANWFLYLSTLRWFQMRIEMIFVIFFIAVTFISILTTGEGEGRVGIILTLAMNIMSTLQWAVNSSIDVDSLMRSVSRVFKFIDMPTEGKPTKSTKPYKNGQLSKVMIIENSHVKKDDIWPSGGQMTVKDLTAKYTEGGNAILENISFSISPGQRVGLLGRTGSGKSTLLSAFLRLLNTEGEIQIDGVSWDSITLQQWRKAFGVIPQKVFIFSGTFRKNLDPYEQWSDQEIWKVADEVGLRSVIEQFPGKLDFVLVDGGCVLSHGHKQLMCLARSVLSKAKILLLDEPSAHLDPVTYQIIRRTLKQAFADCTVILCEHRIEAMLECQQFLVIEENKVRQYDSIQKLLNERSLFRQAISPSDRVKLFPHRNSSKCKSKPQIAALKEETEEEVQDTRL

Row | Compound | EC50 [1] | Maximum % activity (with co-corrector) [2] | EC50 [3] | Emax [4] | Maximum % activity (with co-corrector) [5] | EC50 [6] | Emax [7] | EC50 [8] | EC50 (without co-corrector) (test compound without co-corrector) | Maximum % activity (without co-corrector) [7]
1 | O=C(NS(=O)(=O)Cc1ccccc1)C1(c2ccc(Cl)cc2Cl)CC1 [Example III-104, 1-(2,4-dichlorophenyl)-N-(phenylmethanesulfonyl)cyclopropane-1-carboxamide] | > 10 µM | ++ (≥150 and <350) | 3 to 10 µM | < 50% | – | – | – | – | – | –
2 | COc1cc(C2(C(=O)NS(=O)(=O)c3cccc4[nH]ccc34)CC2)c(OCC2CC2)cn1 [Example GI-95, 1-[5-(cyclopropylmethoxy)-2-methoxypyridin-4-yl]-N-(1H-indole-4-sulfonyl)cyclopropane-1-carboxamide] | – | – | – | – | +++ (≥350) | < 3 µM | > 150% | < 3 µM | – | –
3 | O=C(NS(=O)(=O)c1cccc2ncccc12)C1(c2cc(C3CCC3)cnc2OCC2CC2)CC1 [Example GI-100, 1-[5-cyclobutyl-2-(cyclopropylmethoxy)pyridin-3-yl]-N-(quinoline-5-sulfonyl)cyclopropane-1-carboxamide] | – | – | – | – | +++ (≥350) | < 3 µM | > 150% | < 3 µM | – | –
4 | COc1ccc(C2CCC2)cc1C1(C(=O)NS(=O)(=O)c2cccn3nccc23)CC1 [Example I-61, 1-(5-cyclobutyl-2-methoxyphenyl)-N-(pyrazolo[1,5-a]pyridine-4-sulfonyl)cyclopropane-1-carboxamide] | < 3 µM | +++ (≥350) | < 3 µM | > 150% | – | – | – | – | – | –
5 | CC(C)COc1ncc(C2CCC2)cc1C1(C(=O)NS(=O)(=O)c2cccc3[nH]ccc23)CC1 [Example GI-52, 1-[5-cyclobutyl-2-(2-methylpropoxy)pyridin-3-yl]-N-(1H-indole-4-sulfonyl)cyclopropane-1-carboxamide] | – | – | – | – | +++ (≥350) | < 3 µM | > 150% | < 3 µM | – | –
6 | COc1ccc(C2(C(=O)NS(=O)(=O)c3ccccc3)CC2)cc1 [Example III-5, N-(benzenesulfonyl)-1-(4-methoxyphenyl)cyclopropane-1-carboxamide] | > 10 µM | + (<150) | > 10 µM | < 50% | – | – | – | – | – | –
7 | COc1ncc(C2CCC2)cc1C1(C(=O)NS(=O)(=O)c2cccn3nccc23)CC1 [Example I-19, 1-(5-cyclobutyl-2-methoxypyridin-3-yl)-N-(pyrazolo[1,5-a]pyridine-4-sulfonyl)cyclopropane-1-carboxamide] | < 3 µM | +++ (≥350) | < 3 µM | > 150% | – | – | – | – | – | –
8 | Cc1ccc2c(S(=O)(=O)NC(=O)C3(c4cc(C5CC5)cnc4OCC(C)C)CC3)cccc2n1 [Example GI-49, 1-[5-cyclopropyl-2-(2-methylpropoxy)pyridin-3-yl]-N-(2-methylquinoline-5-sulfonyl)cyclopropane-1-carboxamide] | – | – | – | – | +++ (≥350) | < 3 µM | > 150% | < 3 µM | – | –
9 | CCc1cnc(N2CCCC2)c(C2(C(=O)NS(=O)(=O)c3cccc4nc(C)ccc34)CC2)c1 [GII-31, 1-[5-ethyl-2-(pyrrolidin-1-yl)pyridin-3-yl]-N-(2-methylquinoline-5-sulfonyl)cyclopropane-1-carboxamide] | – | – | – | – | +++ (≥350) | 3 to 10 µM | > 150% | 3 to 10 µM | – | –
10 | O=C(NS(=O)(=O)c1cccnc1)C1(c2ccc(Cl)cc2Cl)CC1 [Example III-59, 1-(2,4-dichlorophenyl)-N-(pyridine-3-sulfonyl)cyclopropane-1-carboxamide] | > 10 µM | + (<150) | 3 to 10 µM | < 50% | – | – | – | – | – | –
11 | CC(C)(C)OC(=O)N1CCC(S(=O)(=O)NC(=O)C2(c3ccc(Cl)cc3Cl)CC2)CC1 [Example III-80, tert-butyl 4-{[1-(2,4-dichlorophenyl)cyclopropane-1-carbonyl]sulfamoyl}piperidine-1-carboxylate] | > 10 µM | + (<150) | > 10 µM | < 50% | – | – | – | – | – | –
12 | COc1ccc(C)c(OC)c1C1(C(=O)NS(=O)(=O)c2cccc3ccc(C)nc23)CC1 [II-39] | < 3 µM | +++ (≥350) | < 3 µM | 50 to 150% | – | – | – | – | – | –
13 | Cc1cnc(OCC(C)C)c(C2(C(=O)NS(=O)(=O)c3cccc4ncccc34)CC2)c1 [Example GI-42, 1-[5-methyl-2-(2-methylpropoxy)pyridin-3-yl]-N-(quinoline-5-sulfonyl)cyclopropane-1-carboxamide] | – | – | – | – | +++ (≥350) | < 3 µM | > 150% | < 3 µM | – | –
14 | O=C(NS(=O)(=O)c1cccc2ncccc12)C1(c2cc(C3CCC3)cnc2N2CCOCC2)CC1 [GII-28, 1-[5-cyclobutyl-2-(morpholin-4-yl)pyridin-3-yl]-N-(quinoline-5-sulfonyl)cyclopropane-1-carboxamide] | – | – | – | – | ++ (≥150 and <350) | 3 to 10 µM | 50 to 150% | – | ++^a | –
15 | CC(C)Oc1ncc(N2CCCC2)cc1C1(C(=O)NS(=O)(=O)c2cccc3[nH]ccc23)CC1 [Example GI-64, N-(1H-indole-4-sulfonyl)-1-{2-[(propan-2-yl)oxy]-5-(pyrrolidin-1-yl)pyridin-3-yl}cyclopropane-1-carboxamide] | – | – | – | – | +++ (≥350) | < 3 µM | > 150% | < 3 µM | – | –
16 | CCOc1ccc(C)cc1C1(C(=O)NS(=O)(=O)c2cccc3ncccc23)CC1 [Example I-82, 1-(2-ethoxy-5-methylphenyl)-N-(quinoline-5-sulfonyl)cyclopropane-1-carboxamide] | < 3 µM | +++ (≥350) | < 3 µM | > 150% | – | – | – | – | – | –
17 | COc1ccc(C2(OC)COC2)cc1C1(C(=O)NS(=O)(=O)c2cccc3ncccc23)CC1 [Example III-128, 1-[2-methoxy-5-(3-methoxyoxetan-3-yl)phenyl]-N-(quinoline-5-sulfonyl)cyclopropane-1-carboxamide] | 3 to 10 µM | ++ (≥150 and <350) | 3 to 10 µM | < 50% | – | – | – | – | – | –
18 | COc1ncc(C(F)(F)F)cc1C1(C(=O)NS(=O)(=O)c2cccc3c2CCCN3)CC1 [II-8] | 3 to 10 µM | +++ (≥350) | < 3 µM | > 150% | – | – | – | – | – | –
19 | 1-[5-(cyclopropylmethoxy)-2-methoxypyridin-4-yl]-N-(2-methylquinoline-5-sulfonyl)cyclopropane-1-carboxamide [Example GI-93] | – | – | – | – | +++ (≥350) | < 3 µM | – | < 3 µM | – | +++ (≥150)
20 | CC(C)Oc1cnc(OC(C)C)c(C2(C(=O)NS(=O)(=O)c3cccc4ncccc34)CC2)c1 [Example GI-65, 1-{2,5-bis[(propan-2-yl)oxy]pyridin-3-yl}-N-(quinoline-5-sulfonyl)cyclopropane-1-carboxamide] | – | – | – | – | +++ (≥350) | < 3 µM | > 150% | < 3 µM | – | –
21 | CCc1ccc(O[C@@H]2CCOC2)c(C2(C(=O)NS(=O)(=O)c3cccc4nc(C)ccc34)CC2)c1 [Example I-119, 1-(5-ethyl-2-{[(3R)-oxolan-3-yl]oxy}phenyl)-N-(2-methylquinoline-5-sulfonyl)cyclopropane-1-carboxamide] | < 3 µM | +++ (≥350) | < 3 µM | > 150% | – | – | – | – | – | –
22 | CCc1ccc(OC)c(C2(C(=O)NS(=O)(=O)c3cccc4nc(C)ccc34)CC2)c1 [Example I-84, 1-(5-ethyl-2-methoxyphenyl)-N-(2-methylquinoline-5-sulfonyl)cyclopropane-1-carboxamide] | < 3 µM | +++ (≥350) | < 3 µM | > 150% | – | – | – | – | – | –
23 | COc1cc(C2CCC2)cc(OC)c1C1(C(=O)NS(=O)(=O)c2cccc3[nH]ncc23)CC1 [II-76] | 3 to 10 µM | +++ (≥350) | 3 to 10 µM | > 150% | – | – | – | – | – | –
24 | CCc1cnc(OCC(C)C)c(C2(C(=O)NS(=O)(=O)c3cccc4[nH]ccc34)CC2)c1 [Example GI-47, 1-[5-ethyl-2-(2-methylpropoxy)pyridin-3-yl]-N-(1H-indole-4-sulfonyl)cyclopropane-1-carboxamide] | – | – | – | – | +++ (≥350) | < 3 µM | > 150% | < 3 µM | – | –
25 | CC(C)Oc1ncccc1C1(C(=O)NS(=O)(=O)c2cccc3ccccc23)CC1 [GII-2, N-(naphthalene-1-sulfonyl)-1-{2-[(propan-2-yl)oxy]pyridin-3-yl}cyclopropane-1-carboxamide] | – | – | – | – | ++ (≥150 and <350) | 3 to 10 µM | 50 to 150% | 3 to 10 µM | – | –
26 | COc1nc(N(C)C)ccc1C1(C(=O)NS(=O)(=O)c2cccc3ncccc23)CC1 [GII-18, 1-[6-(dimethylamino)-2-methoxypyridin-3-yl]-N-(quinoline-5-sulfonyl)cyclopropane-1-carboxamide] | – | – | – | – | +++ (≥350) | 3 to 10 µM | > 150% | 3 to 10 µM | – | –
27 | COc1ccc(C2CC2)cc1C1(C(=O)NS(=O)(=O)c2cccc3c2CCCN3)CCC1 [Example I-27, 1-(5-cyclopropyl-2-methoxyphenyl)-N-(1,2,3,4-tetrahydroquinoline-5-sulfonyl)cyclobutane-1-carboxamide] | 3 to 10 µM | +++ (≥350) | < 3 µM | > 150% | – | – | – | – | – | –
